Here are results for 9 compounds from patent publication US12448388B2, “PRMT5 inhibitors and uses thereof” (Gilead Sciences, Inc., priority 2023, dated 2025).

The test system of assay [1] is Symmetric Di-methyl Arginine (SDMA) signal (PRMT5 inhibition) in HCT116 MTAP-deleted cells. The assay can be described thus: Symmetric di-methyl arginine image-based high content screen assay (SDMA assay), HCT116 MTAP-deleted. The class given is cell-based. The note with it: for EC50: Homo sapiens, HCT-116, HCT116 MTAP-deleted, class symbols. In outline:
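HCT116 WT and MTAP-deleted cells (800/well, RPMI 1640 + 10% FBS) treated with compound 3 days at 37 °C; formalin-fixed, stained with anti-SDMA antibody/Alexa 488 plus DAPI. Mean SDMA intensity per DAPI-defined cell imaged; EC50 from 4-parameter logistic fit.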

Assay [2] deals with HCT116 MTAP-deleted cell lines. Nature of the assay: Cell viability assay (CellTiter-Glo, 7 days), HCT116 MTAP-deleted. The format is cell-based. The note with it: Homo sapiens, HCT-116, HCT116 MTAP-deleted, class symbols, read-out: CC50. In outline: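 HCT116 MTAP-deleted and wild-type cells exposed to serially diluted compound for 7 days at 37 °C, 5% CO2. Viability read by CellTiter-Glo luminescence; CC50 derived per line, with selectivity comparing WT to MTAP-deleted, limited solubility can inflate values marked *.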
(In general: In ATP-based viability assays light output follows the ATP content of the culture.)

The mark [3] stands for this setting: HCT116 WT vs HCT116 MTAP-deleted.

Where two headings read alike, the source gives them in different places.

Regarding `CN(C(=O)c1cc2c(cc1F)nc(N)c1cncn12)[C@@H]1COc2cc(-n3cnc(C(F)(F)F)c3)ccc21` [Ff-325, (S)-4-amino-7-fluoro-N-methyl-N-(6-(4-(trifluoromethyl)-1H-imidazol-1-yl)-2,3-dihydrobenzofuran-3-yl)imidazo[1,5-a]quinoxaline-8-carboxamide], the EC50 selectivity in assay [1] (HCT116 WT versus HCT116 MTAP-deleted) turned out to be 447. The EC50 – broadly, the concentration giving half of the maximal effect – in assay [1] is not above 1 nM. Moreover, the cytotoxic concentration (CC50) (as a rule, the concentration giving 50% cytotoxicity) in assay [2] (cell viability) was less than 100 nM.

With `Nc1nc2cnc(C(=O)N3CCC[C@@H]4Oc5cc(OC(F)(F)F)c(F)cc5[C@@H]43)cc2n2cncc12` [Ff-378, (4-aminoimidazo[1,5-a]pyrido[3,4-e]pyrazin-8-yl)((4aS,9bS)-8-fluoro-7-(trifluoromethoxy)-3,4,4a,9b-tetrahydrobenzofuro[3,2-b]pyridin-1(2H)-yl)methanone], the EC50 selectivity in assay [1] (setting [3]) amounted to 106. The same compound displayed a 50% effective concentration (EC50) in assay [1] not above 1 nM. Moreover, the CC50 in assay [2] (cell viability assay) is less than 100 nM.

As to `Nc1nc2ccc(C(=O)N(CC3CC3)[C@@H]3COc4cc(C(F)(F)F)ccc43)cc2n2cncc12` [Ff-407, (S)-4-amino-N-(cyclopropylmethyl)-N-[(3S)-6-(trifluoromethyl)-2,3-dihydrobenzofuran-3-yl]imidazo[1,5-a]quinoxaline-8-carboxamide], the EC50 selectivity in assay [1] (setting [3]) was determined as 65. For the same compound, in assay [1], the EC50 was not above 1 nM. For the same compound, the CC50 in assay [2] (cell viability assay) was less than 100 nM.

In assay [1] (setting [3]), `Nc1nc2ccc(C(=O)N(Cc3ccc(C(F)(F)F)cc3F)C3COC3)cc2n2cncc12` [Ff-410, 4-amino-N-[[2-fluoro-4-(trifluoromethyl)phenyl]methyl]-N-(oxetan-3-yl)imidazo[1,5-a]quinoxaline-8-carboxamide] displayed an EC50 selectivity of 453. Further, the EC50 in assay [1] was more than 5 nM. For the same compound, the 50% cytotoxic concentration (CC50) in assay [2] (cell viability assay) fell in the range of 100 to 1000 nM.

Compound `CC(C)N(Cc1ccc(C(F)(F)F)cc1F)C(=O)c1ccc2nc(N)c3cncn3c2c1` [Ff-412, 4-amino-N-[[2-fluoro-4-(trifluoromethyl)phenyl]methyl]-N-isopropyl-imidazo[1,5-a]quinoxaline-8-carboxamide] displayed an EC50 selectivity in assay [1] (setting [3]) of 252. This compound registered an EC50 in assay [1] not above 1 nM. Besides, the CC50 in assay [2] (cell viability assay) was less than 100 nM.

Compound `Nc1nc2cc(F)c(C(=O)N3CCC[C@@H]4Oc5c(ccc(C(F)(F)F)c5F)[C@@H]43)cc2n2cncc12` [Ff-501, (4-amino-7-fluoroimidazo[1,5-a]quinoxalin-8-yl)((4aS,9bS)-6-fluoro-7-(trifluoromethyl)-3,4,4a,9b-tetrahydrobenzofuro[3,2-b]pyridin-1(2H)-yl)methanone] had an EC50 selectivity in assay [1] (setting [3]) of 115. Also, the EC50 in assay [1] was not above 1 nM. Further, the CC50 in assay [2] (cell viability assay) was less than 100 nM.

Turning to `Cc1ncn2c1c(N)nc1cnc(C(=O)N(C)[C@@H]3COc4cc(C(F)(F)F)ccc43)cc12` [Ff-502, (S)-4-amino-N,3-dimethyl-N-(6-(trifluoromethyl)-2,3-dihydrobenzofuran-3-yl)imidazo[1,5-a]pyrido[3,4-e]pyrazine-8-carboxamide], the EC50 selectivity in assay [1] (setting [3]) was found to be 112. Also, the EC50 in assay [1] is 1 to 5 nM. Besides, the half-maximal cytotoxic concentration (CC50) in assay [2] (cell viability assay) was less than 100 nM.

Compound `CN(C(=O)c1cc2c(cc1F)nc(N)c1cncn12)[C@@H]1COc2cc(C#CC3(C)COC3)ccc21` [Ff-516, (S)-4-amino-7-fluoro-N-methyl-N-(6-((3-methyloxetan-3-yl)ethynyl)-2,3-dihydrobenzofuran-3-yl)imidazo[1,5-a]quinoxaline-8-carboxamide] returned an EC50 selectivity in assay [1] (setting [3]) of 337. This compound came in with an EC50 in assay [1] of 1 to 5 nM. Further, the half-maximal cytotoxic concentration (CC50) in assay [2] (cell viability assay) was less than 100 nM.

For the compound `Cc1cn(-c2ccc3c(c2)OC[C@H]3N(C)C(=O)c2cc3c(cc2F)nc(N)c2cncn23)cn1` [Ff-544, (S)-4-amino-7-fluoro-N-methyl-N-(6-(4-methyl-1H-imidazol-1-yl)-2,3-dihydrobenzofuran-3-yl)imidazo[1,5-a]quinoxaline-8-carboxamide], the EC50 selectivity in assay [1] (setting [3]) came out at 109. Also, in assay [1], the EC50 was in the range of 1 to 5 nM. For the same compound, the CC50 in assay [2] (cell viability assay) was less than 100 nM.
